Results published in paper PMC10529594, “Strasseriolides display in vitro and in vivo activity against trypanosomal parasites and cause morphological and size defects in Trypanosoma cruzi” (PLOS Neglected Tropical Diseases, 2023).
Where “and” joins values, the source holds several entries; their conditions need not be identical. Identical values can stand only once. Like-named read-outs stand apart in the source and are kept apart here.

Tests used:
[1] = system: L. donovani MHOM/ET/67/HU3 transgenic intracellular amastigotes; assay: L. donovani intracellular amastigote assay (luciferase, THP-1 macrophages); type: cell-based; details: Leishmania donovani, THP-1, 72 h, read-out: EC50 L. donovani
Experimental: Leishmania donovani MHOM/ET/67/HU3 cells with the luciferase gene integrated into the parasite genome was obtained as described. Parasites were grown at 28°C in RPMI 1640-modified medium supplemented with 20% heat-inactivated fetal bovine serum (iFBS, Invitrogen) with […] of hygromycin B.
THP-1 cells were differentiated into macrophages with 20 ng/mL of PMA in a 96-well plate at 3 × 10^4 cells per well for 48 hours followed by 24 hours of culture in fresh medium. Cells were then infected with transgenic stationary L. donovani MHOM/ET/67/HU3 promastigotes expressing the luciferase gene at a multiplicity of infection (MOI) of 10. A volume of 100 μL of culture media containing the test compounds was added to each well and the plates were incubated at 37°C for 72 hours. Luminescence was measured using the Promega kit luciferase assay system.

[2] = system: T. cruzi Tulahuen C4 trypomastigotes; assay: T. cruzi trypomastigote viability assay (resazurin fluorescence); type: cell-based, Trypanosoma cruzi; details: Tulahuen C4, 72 hours at 37°C
Experimental: Tulahuen T. cruzi trypomastigotes were recovered 6 days post infection from the supernatant of harvested infected L6 cells cultures after 3 hours at 37°C. 90 μL of parasite culture at a density of 5 × 10^6 cells in RPMI 1640 media were dispensed into 96 Nunc flat bottom assay plates containing 10 μL of each compound.
In the fluorescence assay, plates were incubated for 24 and 48 hours after which 10 μL of the resazurin solution were added to each well. Plates were further incubated for 24 hours and fluorescence was measured at 550/590 nm using a Tecan Infinite 200 microplate reader. […] Final maximal DMSO percentage in the well was 0.1% and compound concentrations ranged from 0.2 to 100 μM.

[3] = system: transgenic Trypanosoma cruzi Brazil strain expressing firefly luciferase; assay: In vivo efficacy, acute T. cruzi infection in BALB/c mice (luciferase imaging)
Experimental: In vivo experiments were performed at the Anti-infectives Screening Core Services facility of the New York University School of Medicine. The transgenic Trypanosoma cruzi Brazil strain expressing firefly luciferase was used. Groups of five female BALB/c mice were infected with 2 × 10^6 T. cruzi trypomastigotes. […] Quantification is based on luciferase activity of the parasites after i.p. injection of 150 mg/Kg D-luciferin potassium-salt in PBS. Luminescence is measured on the fifth day using an IVIS Lumina II imager.

[4] = set-up: method as in PMID 34865639; details: cited from earlier work
Plasmodium berghei = system: Plasmodium berghei; set-up: method as in PMID 34865639; details: Plasmodium berghei murine model; cited from earlier work
[5] = system: intracellular T. cruzi amastigotes; assay: Rate of kill, intracellular T. cruzi amastigotes (CPRG, 96-well); type: cell-based, Trypanosoma cruzi; details: for EC90/EC50 / Hill slope / EC50: Amastigotes; for Growth inhibition (%), individual replicates / inhibition at 50 µM: T. cruzi amastigotes, 50 µM; for inhibition at 50 µM / EC50: Trypanosoma cruzi
Experimental: For rate of kill experiments, in vitro activity against intracellular T. cruzi amastigotes was analyzed at early time points: 24, 48 and 72 hours. The standard colorimetric transgenic assay was established in a 96-well format, with serial dilutions of compounds and 0.05% as the final maximal DMSO percentage per well. In these experiments L6 host cells were included as negative controls and CPRG conversion was monitored at 585 nm using a Versamax microplate reader (Molecular devices).

T. cruzi epimastigotes = assay: Microscopy analysis of T. cruzi epimastigotes (DAPI cell cycle, DIC morphology); type: cell-based, Trypanosoma cruzi; details: for % Cells 0N1K, Average / % Cells 1N1K1F, Average / % Cells 1N*1K*1F, Average / % Cells 1N*2K2F, Average / % Cells 2N1K, Average / % Cells 2N2K2F, Average / % Cells Other, Average / % Cells 0N1K, individual replicates / % Cells 1N1K1F, individual replicates / % Cells 1N*1K*1F, individual replicates / % Cells 1N*2K2F, individual replicates / % Cells 2N1K, individual replicates / % Cells 2N2K2F, individual replicates / % Cells Other, individual replicates: 72-hour drug exposure, DAPI staining
Experimental: For morphological phenotypic analysis and further confirmation of cell cycle analysis by FACS, T. cruzi epimastigotes were grown for 72 hours in a 6-well plate in the presence and absence of drugs. Briefly, 1 × 10^6 parasites of each condition were harvested and fixed in 4% p-formaldehyde at 4°C for 20 minutes, washed twice with cold PBS, and placed on poly-L-lysine-coated slides. Followed by dehydration in methanol, parasite samples were stained and mounted with DAPI Prolong. Digital images were acquired with a Leica DMi8 microscope in Tile Scan mode with […] excitation to quantify DAPI stained nuclei and kinetoplasts of the parasite population. Transmitted light microscopy was used to acquire differential interference contrast (DIC) images (> 80 individual cells in each of two independent experiments).

[6] = Trypanosoma cruzi, TULAHUEN, 72 h

C/C1=C\[C@H](C)CC[C@@H](O)/C(C)=C/[C@H](C)C[C@@H](C)CC[C@@H]([C@@H](C)C(=O)O)OC(=O)[C@@H](C)C1 [Strasseriolide B, strasseriolide B]
EC50 [1]: 0.032 µM | EC50 [2, 6]: < 0.2 µM

C/C1=C\[C@H](C)C(=O)C[C@@H](O)/C(C)=C/[C@H](C)C[C@@H](C)CC[C@@H]([C@@H](C)C(=O)O)OC(=O)[C@@H](C)C1 [Strasseriolide C, strasseriolide C]
Total counts, individual mouse ([3]; 50 mg/kg i.p. 5 days from 72 h post-infection, 50 mg/kg): 1820000 and 5150000 and 2580000 and 6540000 and 3640000 | Total counts, Average ([3]; 50 mg/kg i.p. 5 days from 72 h post-infection, vehicle average 8050000): 3940000 | parasitaemia in vivo ([3]; acute infection model, 50 mg/Kg i.p., 5 days): lowers parasitaemia | liver microsome clearance [4]: medium | in vivo antiprotozoal activity (Plasmodium berghei): exhibit in vivo antiprotozoal activity | EC50 [1]: 6.63 µM | EC90/EC50 ([5]; 24 h): 3.78 | Hill slope ([5]; 24 h): 1.70 | EC90/EC50 ([5]; 48 h): 2.65 | Hill slope ([5]; 48 h): 2.31 | EC90/EC50 ([5]; 72 h): 2.43 | Hill slope ([5]; 72 h): 2.48 | Growth inhibition (%), individual replicates ([5]; 24 h, single replicates): 74.7423% | Growth inhibition (%), individual replicates ([5]; 48 h, single replicates): 94.7649% and 95.5652% | Growth inhibition (%), individual replicates ([5]; 72 h, single replicates): 98.6747% and 99.1566% | inhibition at 50 µM ([5]; 24 h, 24 h, average, read-out: Growth inhibition (%), Average): 73.4% | inhibition at 50 µM ([5]; 24 h, 24 h, single replicates, read-out: Growth inhibition (%), individual replicates): 72.7% | inhibition at 50 µM ([5]; 48 h, 48 h, average, read-out: Growth inhibition (%), Average): 94.9% | inhibition at 50 µM ([5]; 48 h, 48 h, single replicates, read-out: Growth inhibition (%), individual replicates): 94.2% | inhibition at 50 µM ([5]; 72 h, 72 h, average, read-out: Growth inhibition (%), Average): 98.8% | inhibition at 50 µM ([5]; 72 h, 72 h, single replicates, read-out: Growth inhibition (%), individual replicates): 98.6% | EC50 ([5]; 24 h): 10.3 µM | EC50 ([5]; 48 h): 5.25 µM | EC50 ([5]; 72 h): 5.3 µM | % Cells 0N1K, Average (T. cruzi epimastigotes; EC30, average): 0.9709% | % Cells 1N1K1F, Average (T. cruzi epimastigotes; EC30, average): 66.0194% | % Cells 1N*1K*1F, Average (T. cruzi epimastigotes; EC30, average): 4.854% | % Cells 1N*2K2F, Average (T. cruzi epimastigotes; EC30, average): 2.913% | % Cells 2N1K, Average (T. cruzi epimastigotes; EC30, average): 4.854% | % Cells 2N2K2F, Average (T. cruzi epimastigotes; EC30, average): 19.4175% | % Cells Other, Average (T. cruzi epimastigotes; EC30, average): 0.9709% | % Cells 0N1K, individual replicates (T. cruzi epimastigotes; EC30, single replicates): 0.9709% | % Cells 1N1K1F, individual replicates (T. cruzi epimastigotes; EC30, single replicates): 70.8738% and 61.165% | % Cells 1N*1K*1F, individual replicates (T. cruzi epimastigotes; EC30, single replicates): 4.854% | % Cells 1N*2K2F, individual replicates (T. cruzi epimastigotes; EC30, single replicates): 2.913% | % Cells 2N1K, individual replicates (T. cruzi epimastigotes; EC30, single replicates): 6.796% and 2.913% | % Cells 2N2K2F, individual replicates (T. cruzi epimastigotes; EC30, single replicates): 13.5922% and 25.2427% | % Cells Other, individual replicates (T. cruzi epimastigotes; EC30, single replicates): 0% and 1.942% | % Cells 0N1K, Average (T. cruzi epimastigotes; EC70, average): 3.4269% | % Cells 1N1K1F, Average (T. cruzi epimastigotes; EC70, average): 57.8968% | % Cells 1N*1K*1F, Average (T. cruzi epimastigotes; EC70, average): 5.388% | % Cells 1N*2K2F, Average (T. cruzi epimastigotes; EC70, average): 3.4269% | % Cells 2N1K, Average (T. cruzi epimastigotes; EC70, average): 2.951% | % Cells 2N2K2F, Average (T. cruzi epimastigotes; EC70, average): 24.9207% | % Cells Other, Average (T. cruzi epimastigotes; EC70, average): 2.961% | % Cells 0N1K, individual replicates (T. cruzi epimastigotes; EC70, single replicates): 2.9703% and 3.8835% | % Cells 1N1K1F, individual replicates (T. cruzi epimastigotes; EC70, single replicates): 63.3663% and 52.4272% | % Cells 1N*1K*1F, individual replicates (T. cruzi epimastigotes; EC70, single replicates): 4.9505% and 5.825% | % Cells 1N*2K2F, individual replicates (T. cruzi epimastigotes; EC70, single replicates): 2.9703% and 3.8835% | % Cells 2N1K, individual replicates (T. cruzi epimastigotes; EC70, single replicates): 3.9604% and 1.942% | % Cells 2N2K2F, individual replicates (T. cruzi epimastigotes; EC70, single replicates): 16.8317% and 33.0097% | % Cells Other, individual replicates (T. cruzi epimastigotes; EC70, single replicates): 4.9505% and 0.9709% | morphological changes (DIC microscopy) (T. cruzi epimastigotes; 72 h, at EC70): smaller and rounded parasites | EC50 [2, 6]: 3.8 µM | EC50 [2]: 3.84 µM

C/C1=C\[C@H](C)[C@@H](O)C[C@@H](O)/C(C)=C/[C@H](C)C[C@@H](C)CC[C@@H]([C@@H](C)C(=O)O)OC(=O)[C@@H](C)C1 [Strasseriolide D, strasseriolide D]
liver microsome clearance [4]: low | in vivo antiprotozoal activity (Plasmodium berghei): exhibit in vivo antiprotozoal activity | EC50 [1]: 13.6 µM | % Cells 0N1K, Average (T. cruzi epimastigotes; EC30, average): 1.2% | % Cells 1N1K1F, Average (T. cruzi epimastigotes; EC30, average): 57.325% | % Cells 1N*1K*1F, Average (T. cruzi epimastigotes; EC30, average): 6.55% | % Cells 1N*2K2F, Average (T. cruzi epimastigotes; EC30, average): 2.85% | % Cells 2N1K, Average (T. cruzi epimastigotes; EC30, average): 4.5% | % Cells 2N2K2F, Average (T. cruzi epimastigotes; EC30, average): 26.325% | % Cells Other, Average (T. cruzi epimastigotes; EC30, average): 1.25% | % Cells 0N1K, individual replicates (T. cruzi epimastigotes; EC30, single replicates): 0% and 2.4% | % Cells 1N1K1F, individual replicates (T. cruzi epimastigotes; EC30, single replicates): 56.25% and 58.4% | % Cells 1N*1K*1F, individual replicates (T. cruzi epimastigotes; EC30, single replicates): 7.5% and 5.6% | % Cells 1N*2K2F, individual replicates (T. cruzi epimastigotes; EC30, single replicates): 2.5% and 3.2% | % Cells 2N1K, individual replicates (T. cruzi epimastigotes; EC30, single replicates): 5% and 4% | % Cells 2N2K2F, individual replicates (T. cruzi epimastigotes; EC30, single replicates): 26.25% and 26.4% | % Cells Other, individual replicates (T. cruzi epimastigotes; EC30, single replicates): 2.5% and 0% | % Cells 0N1K, Average (T. cruzi epimastigotes; EC70, average): 0.4587% | % Cells 1N1K1F, Average (T. cruzi epimastigotes; EC70, average): 62.2955% | % Cells 1N*1K*1F, Average (T. cruzi epimastigotes; EC70, average): 3.438% | % Cells 1N*2K2F, Average (T. cruzi epimastigotes; EC70, average): 5.902% | % Cells 2N1K, Average (T. cruzi epimastigotes; EC70, average): 3.953% | % Cells 2N2K2F, Average (T. cruzi epimastigotes; EC70, average): 19.5971% | % Cells Other, Average (T. cruzi epimastigotes; EC70, average): 4.355% | % Cells 0N1K, individual replicates (T. cruzi epimastigotes; EC70, single replicates): 0% and 0.9174% | % Cells 1N1K1F, individual replicates (T. cruzi epimastigotes; EC70, single replicates): 56.701% and 67.8899% | % Cells 1N*1K*1F, individual replicates (T. cruzi epimastigotes; EC70, single replicates): 4.124% and 2.752% | % Cells 1N*2K2F, individual replicates (T. cruzi epimastigotes; EC70, single replicates): 7.216% and 4.587% | % Cells 2N1K, individual replicates (T. cruzi epimastigotes; EC70, single replicates): 5.155% and 2.752% | % Cells 2N2K2F, individual replicates (T. cruzi epimastigotes; EC70, single replicates): 22.6804% and 16.5138% | % Cells Other, individual replicates (T. cruzi epimastigotes; EC70, single replicates): 4.124% and 4.587% | EC50 [2, 6]: 3.4 µM | EC50 [2]: 3.38 µM
